# According to patent US11279733B2, “Peptide antibiotics” (priority 2017, dated 2022):
# Like-named read-outs stand apart in the source and are kept apart here. Positions of bridges follow the written chain, without caps; N, C: chain ends. Non-standard residues stand in square brackets, D forms with d. Residues, ends and D or L forms follow the SMILES beside them. *: point of attachment. Decanoyl(3R-OH) = CCCCCCC[C@@H](O)CC(=O)*; Phe(4-NH2) = Nc1ccc(C[C@H](N)C(=O)O)cc1; dDab = NCC[C@@H](N)C(=O)O; Dab = NCC[C@H](N)C(=O)O
# How the values were obtained:
# [1] = In vitro nephrotoxicity, LDH release from primary human kidney cells; type: cell-based; details: pH 7.4
# Source text: (§1) hPT cells were derived from whole human kidneys procured by the International Institute for the Advancement of Medicine (Edison, N.J., USA). All tissue was scored by a pathologist as normal (i.e., derived from non-cancerous, non-diseased tissue). Cell isolation procedures were based on those originally described by Todd et al. (1996) and modified (Cummings and Lash, 2000; Cummings et al., 2000) with use of sterile conditions (i.e., all instruments and glassware were autoclaved and all buffers were filtered through a 0.2-μm pore-size filter). Renal cortex and outer stripe were cut into slices, washed with sterile PBS, minced, and the pieces were placed in a trypsinization flask filled with 300 ml of sterile, filtered Hanks' buffer, containing 25 mM NaHCO3, 25 mM HEPES, pH 7.4, 0.5 mM EGTA, 0.2% (w/v) bovine serum albumin, 50 μg/ml gentamicin, 1.3 mg/mL collagenase, and 0.59 mg/ml CaCl2), which was filtered prior to use. Whole kidneys were perfused with Wisconsin medium and kept on ice until they arrived at the laboratory, which was usually within 24 h of removal from the donor.
# (§2) All buffers were continuously bubbled with 95% O2/5% CO2 and were maintained at 37° C. Minced cortical pieces from whole kidneys were subjected to collagenase digestion for 60 min, after which the supernatant was filtered through a 70-μm mesh filter to remove tissue fragments, centrifuged at 150×g for 7 min, and the pellet resuspended in Dulbecco's Modified Eagle's Medium: Ham's F12 Medium (DMEM/F12; 1/1). Approximately 5 to 7×10^6 cells were obtained per 1 g of human kidney cortical tissue.
# (§3) hPT cells were resuspended in 2 mL of DMEM/F12 and diluted to 500 mL with cell culture medium, which was serum-free and hormonally-defined. Composition of this supplemented medium was based on earlier work establishing optimal conditions for primary culture of rat PT cells (Lash et al., 1995). Basal medium was a 1:1 mixture of DMEM/F12. […] Cells were seeded in a volume of 0.5 ml at a density of 50-100 μg protein per cm^2 (0.5-1.0×10^6 cells/ml) on 24-well plates. Cultures were grown at 37° C. in a humidified incubator under an atmosphere of 95% air/5% CO2 at pH 7.4. Cultures were grown to approximately 80%-90% confluence (generally 5-6 days) prior to experiments. Cells were harvested by either scraping the flasks with a Teflon scraper or by brief incubation with Cellstripper (Cellgro, Herndon, Va., USA) (in Ca^2+- and Mg^2+-free Hanks' buffer).
# [2] = In vitro nephrotoxicity, GGT release from primary human kidney cells; type: cell-based; details: pH 7.4
# Source text: as §1, §2, §3
# Release of gamm-glutanyltransferase was assessed according to Orlowski, M., Meister, A. 1963. γ-Glutamyl-p-nitroanilide: A new convenient substrate for determination and study of L- and D-γ-glutamyltranspeptidase activities (Biochim. Biophys. Acta 73: 679-681.)
# A 2.5 mM substrate Solution was prepared from 67 mg γ-glutamyl-p-nitroanilide+264 mg glycylglycine in 100 mL of 0.05 M Tris, pH 8.2 (50 mM Tris, pH 8.2: 605 mg Tris/HCl per 100 mL).
# For the assay in 96-well plates, 6-μL of sample and 0.3 mL substrate solution were added to each well. The absorbance was measured at 410 nm for the appearance of product, p-nitroanilide (molar extinction=8800 M^−1 cm^−1).
# [3] = system: A. baumannii ATCC 19606; details: ATCC 19606
# Outline: (§4)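 Mid-log cultures grown in Mueller Hinton broth at 37° C were tested by 2-fold broth microdilution at 5×10^5 CFU/mL final. Compounds were dissolved in water and tested over a final range of 32 to 0.015 μg/mL.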
# [4] = system: A. baumannii GN_093 PmxR; details: GN 093 PmxR
# Outline: as §4
# [5] = system: E. coli ATCC 25922; details: ATCC 25922
# Outline: as §4
# [6] = system: K. pneumoniae ATCC 13883; details: ATCC 13883
# Outline: as §4
# [7] = system: K. pneumoniae ATCC 700603, MDR; details: ATCC 700603
# Outline: as §4
# [8] = system: K. pneumoniae ATCC BAA-2146, NDM-1 pos; details: ATCC BAA-2146
# Outline: as §4
# [9] = system: K. pneumoniae GN_102 PmxR; details: GN 102 PmxR
# Outline: as §4
# [10] = system: K. pneumoniae GN_106, PmxR; details: GN 106, PmxR
# Outline: as §4
# [11] = system: P. aeruginosa ATCC 27853; details: ATCC 27853
# Outline: as §4
# [12] = system: P. aeruginosa GN_043, PmxR; details: for MIC, P. aeruginosa FADDI-PA070, PmxR: Table 5
# Outline: as §4
# [13] = system: P. aeruginosa GN_105, PmxR; details: GN 105, PmxR
# Outline: as §4
# [14] = system: S. aureus ATCC 25923, MSSA; details: ATCC 25923
# Outline: as §4
# [15] = in vitro; details: human
# Outline: (§5)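 Fluorescence read-out (excitation 560, emission 590) after a 2 h, 37 °C incubation with 5 μM resazurin, following 24 h compound treatment of cells plated at 4000 per well. CC50 values come from fitting dose–response curves of growth inhibition.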
# [16] = in vitro; details: human; remark: listed apart in the source
# Outline: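 HK2 cells were seeded at 2000 per well in DMEM/F12 with 10% FBS and left to attach for 24 h at 37 °C, 5% CO2. They were then exposed for 24 h to 3-fold peptide dilutions starting from 600 μM solutions in quadruplicate. LDH release was read at 450 nm, and CC50 was fitted from dose-response curves.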
# [17] = in vitro; details: human; remark: listed apart in the source
# Outline: as §5
Structure (SMILES),CC50 [1] [µg/mL],CC50 [2] [µg/mL],"MIC, A. baumannii ATCC 19606 [3] [µg/mL]","MIC, A. baumannii Cl Ptyela 10073 4512:2, PmxR [4] [µg/mL]","MIC, E. coli ATCC 25922 [5] [µg/mL]","MIC, K. pneumoniae ATCC 13883 [6] [µg/mL]",MIC A. baumannii ATCC 19606 [3] [µg/mL],MIC A. baumannii GN_093 PmxR [4] [µg/mL],MIC E. coli ATCC 25922 [5] [µg/mL],MIC K. pneumoniae ATCC 13883 [6] [µg/mL],"MIC K. pneumoniae ATCC 700603, MDR [7] [µg/mL]","MIC K. pneumoniae ATCC BAA-2146, NDM-1 pos [8] [µg/mL]",MIC K. pneumoniae GN_102 PmxR [9] [µg/mL],"MIC K. pneumoniae GN_106, PmxR [10] [µg/mL]",MIC P. aeruginosa ATCC 27853 [11] [µg/mL],"MIC P. aeruginosa GN_105, PmxR [13] [µg/mL]","MIC S. aureus ATCC 25923, MSSA [14] [µg/mL]",CC50 at 24 h [15] [µM],CC50 at 24 h [16] [µM],CC50 at 24 h [17] [µM],further results
"CCCCCCC[C@@H](O)CC(=O)N[C@H](CCN)C(=O)N[C@H]1CCNC(=O)[C@H](CC(C)C)NC(=O)[C@H](CCN)NC(=O)[C@H](CCN)NC(=O)[C@H](CC(C)C)NC(=O)[C@@H](Cc2ccccc2)NC(=O)[C@H](CCN)NC1=O [Octapeptin C4, octapeptin C4, reference compound] ({Decanoyl(3R-OH)}-[dDab][Dab][Dab][dF]L[Dab][Dab]L; lactam 2-C)",62,> 128,,,,,,,,,,,,,,,,,,,
"CCCCCCC[C@@H](O)CC(=O)N[C@H](CCN)C(=O)N[C@H]1CCNC(=O)[C@H](CC(C)C)NC(=O)[C@H](CCN)NC(=O)[C@H](CCCCN)NC(=O)[C@H](CC(C)C)NC(=O)[C@@H](Cc2ccccc2)NC(=O)[C@H](CCN)NC1=O [compound 992, 3(R)OH-nC9CO-D-Dab-cyc[L-Dab-L-Dab-D-Phe-L-Leu-L-Lys-L-Dab-L-Leu]] ({Decanoyl(3R-OH)}-[dDab][Dab][Dab][dF]LK[Dab]L; lactam 2-C)",114,> 128,2,8,2,2,,,,,,,,,,,,,,,"MIC, K. pneumoniae ATCC 700603, MDR [7]: 2 µg/mL; MIC, K. pneumoniae ATCC BAA-2146, NDM-1 pos [8]: 2 µg/mL; MIC, K. pneumoniae Cl Koprana 10065 0661:1, PmxR [9]: 4 µg/mL; MIC, K. pneumoniae Cl 138-16347-20362, PmxR [10]: 4 µg/mL; MIC, P. aeruginosa ATCC 27853 [11]: 2 µg/mL; MIC, P. aeruginosa FADDI-PA070, PmxR ([12]; polymyxin-resistant): 2 µg/mL; MIC, P. aeruginosa PA9704, PmxR [13]: 4 µg/mL; MIC, S. Aureus ATCC 25923, MSSA [14]: 16 µg/mL"
"CCCCCCC[C@@H](O)CC(=O)N[C@H](CCN)C(=O)N[C@H]1CCNC(=O)[C@H](CC(C)C)NC(=O)[C@H](CCNC(=O)[C@@H](N)CCCNC(=N)N)NC(=O)[C@H](CCN)NC(=O)[C@H](CC(C)C)NC(=O)[C@@H](Cc2ccccc2)NC(=O)[C@H](CCN)NC1=O [compound 6653, 3(R)OH-nC9CO-D-Dab-cyc[L-Dab-L-Dab-D-Phe-L-Leu-L-Dab-L-Dab(L-Arg)-L-Leu]] ({Decanoyl(3R-OH)}-[dDab][Dab][Dab][dF]L[Dab][Dab](Arg)L; lactam 2-C)",,,,,,,4,16,16,8,8,8,>32,16,4,4,32,> 300,64,> 300,"MIC P. aeruginosa GN_043, PmxR ([12]; polymyxin-resistant): 2 µg/mL"
"CCCCCCC[C@@H](O)CC(=O)N[C@@H](CCN)C(=O)N[C@@H]1CCNC(=O)[C@H](CC(C)C)NC(=O)[C@H](CCN)NC(=O)[C@H](CCN)NC(=O)[C@H](CC(C)C)NC(=O)[C@@H](Cc2ccccc2)NC(=O)[C@H](CCN)NC1=O [compound 6658, 3(R)OH-nC9CO-L-Dab-cyc[D-Dab-L-Dab-D-Phe-L-Leu-L-Dab-L-Dab-L-Leu]] ({Decanoyl(3R-OH)}-[Dab][dDab][Dab][dF]L[Dab][Dab]L; lactam 2-C)",,,,,,,>32,>32,>32,>32,>32,>32,>32,>32,32,>32,>32,> 300,> 300,> 300,"MIC P. aeruginosa GN_043, PmxR ([12]; P. aeruginosa GN_043, PmxR): >32 µg/mL"
"CCCCCCC[C@@H](O)CC(=O)N[C@@H](CCN)C(=O)N[C@@H]1CCNC(=O)[C@H](CC(C)C)NC(=O)[C@H](CCN)NC(=O)[C@H](CCN)NC(=O)[C@H](C)NC(=O)[C@@H](Cc2ccccc2)NC(=O)[C@H](CCN)NC1=O [compound 6660, 3(R)OH-nC9CO-L-Dab-cyc[D-Dab-L-Dab-D-Phe-L-Ala-L-Dab-L-Dab-L-Leu]] ({Decanoyl(3R-OH)}-[Dab][dDab][Dab][dF]A[Dab][Dab]L; lactam 2-C)",,,,,,,>32,>32,>32,>32,>32,>32,>32,>32,>32,>32,>32,> 300,> 300,> 300,"MIC P. aeruginosa GN_043, PmxR ([12]; P. aeruginosa GN_043, PmxR): >32 µg/mL"
"CCCCCCC[C@@H](O)CC(=O)N[C@H](CCN)C(=O)N[C@H]1CCNC(=O)[C@H](CC(C)C)NC(=O)[C@H](CCN)NC(=O)[C@H](CCN)NC(=O)[C@H](CC(C)C)NC(=O)[C@@H](Cc2ccccc2)NC(=O)[C@H](Cc2ccc(N)cc2)NC1=O [compound 8635, 3(R)OH-nC9CO-D-Dab-cyc[L-Dab-L-4NH2Phe-D-Phe-L-Leu-L-Dab-L-Dab-L-Leu]] ({Decanoyl(3R-OH)}-[dDab][Dab][Phe(4-NH2)][dF]L[Dab][Dab]L; lactam 2-C)",,,>32,>32,16,>32,,,,,,,,,,,,> 300,219,> 300,"MIC, K. pneumoniae ATCC 700603, MDR [7]: 32 µg/mL; MIC, K. pneumoniae ATCC BAA-2146, NDM-1 pos [8]: 16 µg/mL; MIC, K. pneumoniae Cl Koprana 10065 0661:1, PmxR [9]: >32 µg/mL; MIC, K. pneumoniae Cl 138-16347-20362, PmxR [10]: >32 µg/mL; MIC, P. aeruginosa ATCC 27853 [11]: 16 µg/mL; MIC, P. aeruginosa FADDI-PA070, PmxR ([12]; polymyxin-resistant): 16 µg/mL; MIC, P. aeruginosa PA9704, PmxR [13]: >32 µg/mL; MIC, S. Aureus ATCC 25923, MSSA [14]: 32 µg/mL"
